Experimental data from patent US11597739B2, “Enhancing CD8+ T cells for adoptive T cell therapy by inhibiting PTPN1 (PTP1B) and PTPN2 (TC-PTP)” (The Royal Institution for the Advancement of …, priority 2017, dated 2023).

Key:
[1] = tested on: mouse activated CD8 T cells; assay: Tcm differentiation and activation markers of stimulated mouse CD8 T cells (flow cytometry); assay type: cell-based
Description: 8) Stimulation of Mouse CD8 T Cells
2 μg/ml of 145-2C11 Hamster anti-Mouse CD3e in 300 μl of PBS are plated in 24 flat bottom well non-TC treated plates. Incubate O/N at 4° C. CD8 T cells from spleens of 8-12 weeks old OT-1 transgenic mice are isolated. 4×10^5 cells/ml are counted and resuspended in complete RPMI (RPMI+10% FBS heat inactivated at 55° C. for 45 min+Pen/Strep+55 μM β-Mercaptoethanol). The following 2× solutions are prepared:
a. Anti-Mouse CD28 10 μg/ml 40 U/ml rmIL-2. (40 ml)
0.5 ml of 2× solution is added to the corresponding wells. Incubate for 4-8 days. Every 2 days add inhibitor to the corresponding concentration. When the cells are confluent, expand to 6 cm tissue culture plates adding 4 ml of complete RPMI+20 U/ml of IL-2 and in b add 10 μM K884.
Calculate the specific cell lysis as follows: Specific cell lysis=((Sample−BF)/(AF−BF))×100 10) Flow Cytometry 1. Cell Activation • a. Wash cells with 1 ml of culture medium; • b. Centrifuge cells for 5 min at 300 g; • c. Resuspend cells in culture medium; • d. Prepare 2× solutions (negative control with only culture medium, Positive condition with 50 ng/mL of PMA and 500 ng/mL of lonomycin); • e. Plate 100 μL of cell suspension in 96 well plates (U-bottom); • f. Add 100 μL of 2× solutions in appropriate wells; • g. Incubate 4 hours at 37 C, 5% CO2. 2. Extracellular Staining • a. Record cell quantity transfers per tube; • b. Wash cells with 1 mL of PBS+2% FBS; • c. Centrifuge cells for 5 min at 300 g; • d. Empty tubes by inversion; • e. Add the antibodies for extracellular staining; • f. Incubate 20 min at 4° C.; • g. Wash cells with 1 mL of PBS+2% FBS; • h. Centrifuge cells for 5 min at 300 g; • i. Empty tubes by inversion; • j. Ressuspend cells in 100 μL fixation/permeabilisation buffer (eBioscience, #00-5223-56, 1 volume of concentrate buffer+3 volumes of diluent buffer) • k. Incubate 30 min at room temperature or overnight at 4° C. 3. Intracellular Staining • a. Wash cells with 1 mL of permeabilization buffer (eBioscience, #00-8333-56, dilution 1/10 in ddH2O); • b. Centrifuge cells for 5 min at 300 g; • c. […]

human T cells = assay: Treatment of human T cells with K884: central memory differentiation and cytokine production; assay type: cell-based
Description: Calculate the specific cell lysis as follows: Specific cell lysis=((Sample−BF)/(AF−BF))×100 10) Flow Cytometry 1. Cell Activation • a. Wash cells with 1 ml of culture medium; • b. Centrifuge cells for 5 min at 300 g; • c. Resuspend cells in culture medium; • d. Prepare 2× solutions (negative control with only culture medium, Positive condition with 50 ng/mL of PMA and 500 ng/mL of lonomycin); • e. Plate 100 μL of cell suspension in 96 well plates (U-bottom); • f. Add 100 μL of 2× solutions in appropriate wells; • g. Incubate 4 hours at 37 C, 5% CO2. 2. Extracellular Staining • a. Record cell quantity transfers per tube; • b. Wash cells with 1 mL of PBS+2% FBS; • c. Centrifuge cells for 5 min at 300 g; • d. Empty tubes by inversion; • e. Add the antibodies for extracellular staining; • f. Incubate 20 min at 4° C.; • g. Wash cells with 1 mL of PBS+2% FBS; • h. Centrifuge cells for 5 min at 300 g; • i. Empty tubes by inversion; • j. Ressuspend cells in 100 μL fixation/permeabilisation buffer (eBioscience, #00-5223-56, 1 volume of concentrate buffer+3 volumes of diluent buffer) • k. Incubate 30 min at room temperature or overnight at 4° C. 3. Intracellular Staining • a. Wash cells with 1 mL of permeabilization buffer (eBioscience, #00-8333-56, dilution 1/10 in ddH2O); • b. Centrifuge cells for 5 min at 300 g; • c. Empty tubes by inversion; • d. Add the intracellular antibodies; • e. Incubate 1 hour at 4° C.; • f. Wash cells with 1 mL of permeabilization buffer; • g. Centrifuge cells for 5 min at 300 g; • h. Empty tubes by inversion; • i. Keep tubes at 4° C. shelter from light 4. Human PBMC Isolation by Ficoll • a. Prepare 50 ml tubes; • b. Transfer blood into 50 ml tubes, with maximum of 17.5 ml per tube; • c. Add sterile PBS to dilute blood to reach 35 ml; • d. Use a dropped-in Pasteur pipet used as a tunnel; add 15 ml of Ficoll; • e. Gently install the tubes and centrifuge at 1000 g for 20 min, RT without brakes; • f. Using a 25 ml pipet, harvest the interface ring of PBMC without too much Ficoll and transfer into a 50 ml tube (maximum 15 ml per tube); • g. […]

[2] = 14 days with IL-7 and IL-15, restimulated with PMA and Ionomycin 4 hours

CCOC(=O)c1cc2cc(C(F)(F)P(=O)(O)O)c(Br)cc2s1 [Ex. 1, ((6-BROMO-2-(ETHOXYCARBONYL)BENZO[B]THIOPHEN-5-YL)DIFLUOROMETHYL)PHOSPHONATE]
expression of IL-2 receptor alpha (CD25), fluorescence ([1]; activated mouse CD8 cells, Tcm gate, compared to untreated): increase on fluorescence closer to one order of magnitude
percentage of Tcm population relative to cells with IL-15 alone ([1]; followed by 5 days incubation with recombinant murine IL-15): ~2 times
differentiation into Tcm cells (CD62Lhigh-CD27high) ([1]; mouse activated CD8 T cells, compared to untreated cells): increased differentiation into Tcm cells at higher rates than the observed in untreated cells
TNFα secretion (human T cells; [2]): enhancement of the proinflammatory cytokine TNFα secretion
production of IFNγ (human T cells; [2]): production of IFNγ is maintained
response of peripheral blood human CD8 T cells to treatment (human T cells; human CD8 T cells compared to mouse CD8 T cells): respond in equivalent manner to mouse CD8 T cells
